Data reported in PubChem BioAssay AID1963983 (Molecular Pharmacology Branch, DTP, NCI, 2024).
Several values for one entry are separate records, joined by “and”; a condition that tells them apart may be missing. Identical values can stand only once.

System: 186277-243-T-J2-PDC multi-cell spheroid viability
Test: Anticancer human tumor 186277-243-T-J2-PDC patient-derived colon adenocarcinoma cell line growth inhibition [PI3K]
Settings: for viability, T/C: stronger effect = lower value
In short: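 Spheroid viability read-out. Co-cultures contained the tumor line plus HUVEC and human MSCs. Each agent was paired with a PI3K inhibitor (inavolisib, alpelisib, duvelisib, copanlisib) across half-log dilutions starting at clinical Cmax, or at 10 microM when Cmax was unknown.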

[1] = curve of first compound, second compound 0.0316 µM
[2] = curve of first compound, second compound 0.1 µM
[3] = curve of first compound, second compound 0.316 µM
[4] = curve of first compound, second compound 1 µM
[5] = curve of first compound, second compound 3.16 µM
[6] = curve of first compound, second compound 10 µM
[7] = second compound 0.0316 µM, first compound 0.0316 µM
[8] = second compound 0.0316 µM, first compound 0.1 µM
[9] = second compound 0.0316 µM, first compound 0.316 µM
[10] = second compound 0.0316 µM, first compound 1 µM
[11] = second compound 0.0316 µM, first compound 3.16 µM
[12] = second compound 0.0316 µM, first compound 10 µM
[13] = second compound 0.1 µM, first compound 0.0316 µM
[14] = second compound 0.1 µM, first compound 0.1 µM
[15] = second compound 0.1 µM, first compound 0.316 µM
[16] = second compound 0.1 µM, first compound 1 µM
[17] = second compound 0.1 µM, first compound 3.16 µM
[18] = second compound 0.1 µM, first compound 10 µM
[19] = second compound 0.316 µM, first compound 0.0316 µM
[20] = second compound 0.316 µM, first compound 0.1 µM
[21] = second compound 0.316 µM, first compound 0.316 µM
[22] = second compound 0.316 µM, first compound 1 µM
[23] = second compound 0.316 µM, first compound 3.16 µM
[24] = second compound 0.316 µM, first compound 10 µM
[25] = second compound 1 µM, first compound 0.0316 µM
[26] = second compound 1 µM, first compound 0.1 µM
[27] = second compound 1 µM, first compound 0.316 µM
[28] = second compound 1 µM, first compound 1 µM
[29] = second compound 1 µM, first compound 3.16 µM
[30] = second compound 1 µM, first compound 10 µM
[31] = second compound 3.16 µM, first compound 0.0316 µM
[32] = second compound 3.16 µM, first compound 0.1 µM
[33] = second compound 3.16 µM, first compound 0.316 µM
[34] = second compound 3.16 µM, first compound 1 µM
[35] = second compound 3.16 µM, first compound 3.16 µM
[36] = second compound 3.16 µM, first compound 10 µM
[37] = second compound 10 µM, first compound 0.0316 µM
[38] = second compound 10 µM, first compound 0.1 µM
[39] = second compound 10 µM, first compound 0.316 µM
[40] = second compound 10 µM, first compound 1 µM
[41] = second compound 10 µM, first compound 3.16 µM
[42] = second compound 10 µM, first compound 10 µM
[43] = curve of first compound, second compound 0.00316 µM
[44] = curve of first compound, second compound 0.01 µM
[45] = second compound 0.00316 µM, first compound 0.0316 µM
[46] = second compound 0.00316 µM, first compound 0.1 µM
[47] = second compound 0.00316 µM, first compound 0.316 µM
[48] = second compound 0.00316 µM, first compound 1 µM
[49] = second compound 0.01 µM, first compound 0.0316 µM
[50] = second compound 0.01 µM, first compound 0.1 µM
[51] = second compound 0.01 µM, first compound 0.316 µM
[52] = second compound 0.01 µM, first compound 1 µM
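Also: spheroids exposed to compounds for seven days before viability reading.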
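For viability, T/C in this document: 100% = DMSO vehicle control viability.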

Cn1nccc1Nc1nccc(-c2ccn(C(CO)c3ccc(Cl)c(F)c3)c(=O)c2)n1 (stereo not drawn) + Cc1nc(NC(=O)N2CCCC2C(N)=O)sc1-c1ccnc(C(C)(C)C(F)(F)F)c1
IC50 [1]: 1840 nM
IC50 [2]: 1190 nM
IC50 [3]: 670 nM
IC50 [4]: 152 nM
IC50 [5]: < 31.6 nM
IC50 [6]: < 31.6 nM
viability, T/C [7]: 89%
viability, T/C [8]: 104%
viability, T/C [9]: 117%
viability, T/C [10]: 71.3%
viability, T/C [11]: 34.2%
viability, T/C [12]: 18.5%
viability, T/C [13]: 91.8%
viability, T/C [14]: 108%
viability, T/C [15]: 99.5%
viability, T/C [16]: 53.8%
viability, T/C [17]: 30.9%
viability, T/C [18]: 22.5%
viability, T/C [19]: 105%
viability, T/C [20]: 100%
viability, T/C [21]: 76.2%
viability, T/C [22]: 34.8%
viability, T/C [23]: 20.5%
viability, T/C [24]: 9.74%
viability, T/C [25]: 94.9%
viability, T/C [26]: 61.1%
viability, T/C [27]: 30.9%
viability, T/C [28]: 13.9%
viability, T/C [29]: 14%
viability, T/C [30]: 6.14%
viability, T/C [31]: 47.4%
viability, T/C [32]: 29.6%
viability, T/C [33]: 15%
viability, T/C [34]: 5.96%
viability, T/C [35]: 8.12%
viability, T/C [36]: 2.21%
viability, T/C [37]: 9.88%
viability, T/C [38]: 9.03%
viability, T/C [39]: 8.27%
viability, T/C [40]: 8.15%
viability, T/C [41]: 1.39%
viability, T/C [42]: 2.02%

Cn1ncnc1[C@H]1c2n[nH]c(=O)c3cc(F)cc(c23)N[C@@H]1c1ccc(F)cc1
viability, T/C (compound 0.000316 µM): 97.7% [middle of 4 runs]
viability, T/C (compound 0.001 µM): 94.7% [middle of 4 runs]
viability, T/C (compound 0.00316 µM): 97.8% [middle of 4 runs]
viability, T/C (compound 0.01 µM): 93% [middle of 4 runs]
viability, T/C (compound 0.1 µM): 93.6% [middle of 4 runs]
IC50 (curve of compound): > 100 nM

C=CC(=O)N1CCN(c2nc(=O)n(-c3c(C)ccnc3C(C)C)c3nc(-c4c(O)cccc4F)c(F)cc23)C(C)C1 (stereo not drawn) + Cc1nc(NC(=O)N2CCCC2C(N)=O)sc1-c1ccnc(C(C)(C)C(F)(F)F)c1
IC50 [1]: > 10000 nM
IC50 [2]: > 10000 nM
IC50 [3]: > 10000 nM
IC50 [4]: > 10000 nM
IC50 [5]: 605 nM
IC50 [6]: < 31.6 nM
viability, T/C [7]: 83.7%
viability, T/C [8]: 108%
viability, T/C [9]: 105%
viability, T/C [10]: 88.1%
viability, T/C [11]: 100%
viability, T/C [12]: 94.8%
viability, T/C [13]: 102%
viability, T/C [14]: 99.2%
viability, T/C [15]: 106%
viability, T/C [16]: 95.6%
viability, T/C [17]: 92%
viability, T/C [18]: 103%
viability, T/C [19]: 108%
viability, T/C [20]: 107%
viability, T/C [21]: 96.6%
viability, T/C [22]: 104%
viability, T/C [23]: 86.9%
viability, T/C [24]: 85%
viability, T/C [25]: 93.4%
viability, T/C [26]: 102%
viability, T/C [27]: 87.6%
viability, T/C [28]: 94.5%
viability, T/C [29]: 80%
viability, T/C [30]: 57.5%
viability, T/C [31]: 61.6%
viability, T/C [32]: 51.9%
viability, T/C [33]: 46.5%
viability, T/C [34]: 52.7%
viability, T/C [35]: 41.1%
viability, T/C [36]: 26.3%
viability, T/C [37]: 11.1%
viability, T/C [38]: 12.8%
viability, T/C [39]: 14.5%
viability, T/C [40]: 9.26%
viability, T/C [41]: 10.8%
viability, T/C [42]: 13.2%

COc1c(OCCCN2CCOCC2)ccc2c3n(c(=NC(=O)c4cnc(N)nc4)nc12)CCN3
viability, T/C (compound 0.00316 µM): 98.7% [middle of 8 runs]
viability, T/C (compound 0.01 µM): 97.8% [middle of 8 runs]
viability, T/C (compound 0.0316 µM): 73.4% [middle of 8 runs]
viability, T/C (compound 0.1 µM): 16.7% [middle of 8 runs]
viability, T/C (compound 0.316 µM): 6.29% [middle of 8 runs]
viability, T/C (compound 1 µM): 2.87% [middle of 8 runs]
IC50 (compound alone, run of 05/09/2023): 51.4 nM [middle of 8 runs]

CC(C)NCC(C(=O)N1CCN(c2ncnc3c2C(C)CC3O)CC1)c1ccc(Cl)cc1 (stereo not drawn) + CC(Nc1ccc2c(c1)OCCn1cc(N3C(=O)OCC3C(F)F)nc1-2)C(N)=O
IC50 [43]: 1120 nM
IC50 [44]: 774 nM
IC50 [1]: 648 nM
IC50 [2]: 355 nM
IC50 [3]: 134 nM
IC50 [4]: < 31.6 nM
viability, T/C [45]: 92.9%
viability, T/C [46]: 77.1%
viability, T/C [47]: 64.1%
viability, T/C [48]: 52%
viability, T/C (second compound 0.00316 µM, first compound 3.16 µM): 39.6%
viability, T/C (second compound 0.00316 µM, first compound 10 µM): 21.4%
viability, T/C [49]: 95.3%
viability, T/C [50]: 87.2%
viability, T/C [51]: 62.2%
viability, T/C [52]: 47%
viability, T/C (second compound 0.01 µM, first compound 3.16 µM): 29.8%
viability, T/C (second compound 0.01 µM, first compound 10 µM): 18.9%
viability, T/C [7]: 104%
viability, T/C [8]: 97%
viability, T/C [9]: 71.4%
viability, T/C [10]: 37.1%
viability, T/C [11]: 19%
viability, T/C [12]: 15%
viability, T/C [13]: 100%
viability, T/C [14]: 86.2%
viability, T/C [15]: 51%
viability, T/C [16]: 27.8%
viability, T/C [17]: 17.1%
viability, T/C [18]: 12.9%
viability, T/C [19]: 75.9%
viability, T/C [20]: 53.6%
viability, T/C [21]: 37.6%
viability, T/C [22]: 24%
viability, T/C [23]: 11.8%
viability, T/C [24]: 8.85%
viability, T/C [25]: 40.1%
viability, T/C [26]: 33.3%
viability, T/C [27]: 24.5%
viability, T/C [28]: 19.4%
viability, T/C [29]: 17.1%
viability, T/C [30]: 6.4%

CC(C)NCC(C(=O)N1CCN(c2ncnc3c2C(C)CC3O)CC1)c1ccc(Cl)cc1 (stereo not drawn)
viability, T/C (compound 0.0316 µM): 93.8% [middle of 4 runs]
viability, T/C (compound 0.1 µM): 88.2% [middle of 4 runs]
viability, T/C (compound 0.316 µM): 77.6% [middle of 4 runs]
viability, T/C (compound 1 µM): 55.6% [middle of 4 runs]
viability, T/C (compound 3.16 µM): 45.9% [middle of 4 runs]
viability, T/C (compound 10 µM): 28.2% (2×) and 31.3% and 28.7%
IC50 (curve of compound): 1.99 µM [middle of 4 runs]

CCN1CCN(Cc2ccc(Nc3ncc(F)c(-c4cc(F)c5nc(C)n(C(C)C)c5c4)n3)nc2)CC1 + CC(Nc1ccc2c(c1)OCCn1cc(N3C(=O)OCC3C(F)F)nc1-2)C(N)=O
IC50 [43]: > 1000 nM
IC50 [44]: > 1000 nM
IC50 [1]: > 1000 nM
IC50 [2]: > 1000 nM
IC50 [3]: 40.3 nM
IC50 [4]: < 3.16 nM
viability, T/C (second compound 0.00316 µM, first compound 0.00316 µM): 99.4%
viability, T/C (second compound 0.00316 µM, first compound 0.01 µM): 94.3%
viability, T/C [45]: 102%
viability, T/C [46]: 143%
viability, T/C [47]: 165%
viability, T/C [48]: 128%
viability, T/C (second compound 0.01 µM, first compound 0.00316 µM): 124%
viability, T/C (second compound 0.01 µM, first compound 0.01 µM): 85%
viability, T/C [49]: 106%
viability, T/C [50]: 132%
viability, T/C [51]: 142%
viability, T/C [52]: 133%
viability, T/C (second compound 0.0316 µM, first compound 0.00316 µM): 98.9%
viability, T/C (second compound 0.0316 µM, first compound 0.01 µM): 93.3%
viability, T/C [7]: 107%
viability, T/C [8]: 113%
viability, T/C [9]: 124%
viability, T/C [10]: 103%
viability, T/C (second compound 0.1 µM, first compound 0.00316 µM): 105%
viability, T/C (second compound 0.1 µM, first compound 0.01 µM): 95.1%
viability, T/C [13]: 83%
viability, T/C [14]: 81.8%
viability, T/C [15]: 75.9%
viability, T/C [16]: 62.5%
viability, T/C (second compound 0.316 µM, first compound 0.00316 µM): 67.6%
viability, T/C (second compound 0.316 µM, first compound 0.01 µM): 74.8%
viability, T/C [19]: 52.5%
viability, T/C [20]: 42.8%
viability, T/C [21]: 42.5%
viability, T/C [22]: 36.2%
viability, T/C (second compound 1 µM, first compound 0.00316 µM): 37.3%
viability, T/C (second compound 1 µM, first compound 0.01 µM): 37.8%
viability, T/C [25]: 28.3%
viability, T/C [26]: 28%
viability, T/C [27]: 31%
viability, T/C [28]: 24.5%
